Several values for one entry are separate records, joined by “and”; a condition that tells them apart may be missing. Equal values may be shown once. Toxic doses and inconclusive results are not listed. Rule as the data show it: active = T/C of 150% or more; inactive = T/C below 125%.
Tested on: L1210 leukemia ip in BDF1 mice, survival T/C
Experiment: NCI In Vivo Anticancer Drug Screen. Data for tumor model L1210 Leukemia (intraperitoneal) in B6D2F1 (BDF1) mice
Settings: endpoint: mean survival time, higher = longer survival
In short: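 Antitumor effect is assessed in tumor-bearing animals. Survival in the compound arm is compared with a vehicle-dosed control arm and expressed as their quotient.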

[1] = dose: 50.0 mg/kg/injection, schedule: Q01DX001 (ip), vehicle: saline
[2] = dose: 100.0 mg/kg/injection, schedule: Q01DX001 (ip), vehicle: saline
[3] = dose: 100.0 mg/kg/injection, schedule: Q04DX003 (ip), vehicle: Klucel (hydroxypropylcellulose) (HPC)
[4] = dose: 100.0 mg/kg/injection, schedule: Q01DX001 (ip), vehicle: carboxymethylcellulose (CMC)
[5] = dose: 200.0 mg/kg/injection, schedule: Q01DX001 (ip), vehicle: carboxymethylcellulose (CMC)
[6] = dose: 400.0 mg/kg/injection, schedule: Q01DX001 (ip), vehicle: carboxymethylcellulose (CMC)
[7] = dose: 100.0 mg/kg/injection, schedule: Q01DX001 (ip), vehicle: saline with Tween-80
[8] = dose: 100.0 mg/kg/injection, schedule: Q01DX009 (ip), vehicle: saline with Tween-80
[9] = dose: 100.0 mg/kg/injection, schedule: Q04DX003 (ip), vehicle: saline with Tween-80
[10] = dose: 200.0 mg/kg/injection, schedule: Q01DX001 (ip), vehicle: saline with Tween-80
[11] = dose: 200.0 mg/kg/injection, schedule: Q01DX009 (ip), vehicle: saline with Tween-80
[12] = dose: 200.0 mg/kg/injection, schedule: Q04DX003 (ip), vehicle: saline with Tween-80
[13] = dose: 400.0 mg/kg/injection, schedule: Q01DX001 (ip), vehicle: saline with Tween-80
[14] = dose: 400.0 mg/kg/injection, schedule: Q04DX003 (ip), vehicle: saline with Tween-80

Measured: T/C

COc1ccc2c(c1)C(CC(=O)O)=CC2
inactive: [1] 100 % of control | [2] 96 % of control | dose: 200.0 mg/kg/injection, schedule: Q01DX001 (ip), vehicle: saline 105 % of control | dose: 400.0 mg/kg/injection, schedule: Q01DX001 (ip), vehicle: saline 107 % of control

N#C/C(=C/c1ccc(Cl)cc1)C(=O)O
inactive: dose: 62.5 mg/kg/injection, schedule: Q01DX009 (ip), vehicle: Klucel (hydroxypropylcellulose) (HPC) 115 % of control | dose: 100.0 mg/kg/injection, schedule: Q04DX002 (ip), vehicle: Klucel (hydroxypropylcellulose) (HPC) 109 % of control | dose: 125.0 mg/kg/injection, schedule: Q01DX009 (ip), vehicle: Klucel (hydroxypropylcellulose) (HPC) 86 % of control | dose: 200.0 mg/kg/injection, schedule: Q04DX002 (ip), vehicle: Klucel (hydroxypropylcellulose) (HPC) 98 % of control | dose: 250.0 mg/kg/injection, schedule: Q01DX009 (ip), vehicle: Klucel (hydroxypropylcellulose) (HPC) 86 % of control

Nc1cc2[nH]cnc2c(Br)n1
inactive: dose: 100.0 mg/kg/injection, schedule: Q04DX003 (ip), vehicle: water 116 % of control | dose: 200.0 mg/kg/injection, schedule: Q04DX003 (ip), vehicle: water 116 % of control | dose: 400.0 mg/kg/injection, schedule: Q04DX003 (ip), vehicle: water 102 % of control

NC1CCC(CC2CCCC2)CC1 (centres undefined)
inactive: dose: 25.0 mg/kg/injection, schedule: Q04DX003 (ip), vehicle: Klucel (hydroxypropylcellulose) (HPC) 96 % of control | dose: 50.0 mg/kg/injection, schedule: Q04DX003 (ip), vehicle: Klucel (hydroxypropylcellulose) (HPC) 93 % of control | [3] 104 % of control and 90 % of control

CC(=O)NC(NNC(NC(C)=O)(c1ccccc1)c1ccccc1)(c1ccccc1)c1ccccc1
inactive: dose: 100.0 mg/kg/injection, schedule: Q04DX003 (ip), vehicle: saline 105 % of control | dose: 200.0 mg/kg/injection, schedule: Q04DX003 (ip), vehicle: saline 102 % of control | dose: 400.0 mg/kg/injection, schedule: Q04DX003 (ip), vehicle: saline 92 % of control

CC(=O)Nc1ccc(S(=O)(=O)NN)cc1
inactive: dose: 50.0 mg/kg/injection, schedule: Q01DX001 (ip), vehicle: carboxymethylcellulose (CMC) 106 % of control | [4] 103 % of control | [5] 92 % of control | [6] 92 % of control

S=C(NP(=S)(NC(=S)N1CC1)NC(=S)N1CC1)N1CC1
inactive: [4] 95 % of control | [5] 91 % of control | [6] 90 % of control

COc1ccc(OC)c(NC(=O)c2ccc(Cl)cc2)c1
inactive: [7] 101 % of control | [8] 97 % of control | dose: 100.0 mg/kg/injection, schedule: Q04DX002 (ip), vehicle: saline with Tween-80 104 % of control and 110 % of control | [9] 94 % of control | [10] 97 % of control | [11] 95 % of control and 97 % of control | dose: 200.0 mg/kg/injection, schedule: Q04DX002 (ip), vehicle: saline with Tween-80 104 % of control and 92 % of control | [12] 97 % of control | [13] 95 % of control | dose: 400.0 mg/kg/injection, schedule: Q01DX009 (ip), vehicle: saline with Tween-80 102 % of control and 124 % of control | dose: 400.0 mg/kg/injection, schedule: Q04DX002 (ip), vehicle: saline with Tween-80 94 % of control and 108 % of control | [14] 95 % of control

Cc1cc(C)c(C[N+](C)(C)C)c(C)c1
inactive: [1] 108 % of control | [2] 104 % of control

Cc1ccc(Cl)cc1N1C(=O)CC(Sc2ccccc2N)C1=O (centres undefined)
inactive: dose: 100.0 mg/kg/injection, schedule: Q01DX009 (ip), vehicle: Klucel (hydroxypropylcellulose) (HPC) 90 % of control | [3] 90 % of control | dose: 200.0 mg/kg/injection, schedule: Q01DX009 (ip), vehicle: Klucel (hydroxypropylcellulose) (HPC) 90 % of control | dose: 200.0 mg/kg/injection, schedule: Q04DX003 (ip), vehicle: Klucel (hydroxypropylcellulose) (HPC) 95 % of control | dose: 400.0 mg/kg/injection, schedule: Q01DX009 (ip), vehicle: Klucel (hydroxypropylcellulose) (HPC) 90 % of control | dose: 400.0 mg/kg/injection, schedule: Q04DX003 (ip), vehicle: Klucel (hydroxypropylcellulose) (HPC) 90 % of control

Cc1cc(N(CCO)CCO)c(C)cc1NC(=O)c1ccccc1
inactive: [4] 106 % of control | [5] 101 % of control | [6] 94 % of control

CNc1ccc(/C=C2\C=Cc3ccccc32)cc1I
inactive: [4] 95 % of control | [5] 95 % of control | [6] 101 % of control

Cc1ccc(N=Cc2ccccc2O)cc1.[Co]
inactive: dose: 100.0 mg/kg/injection, schedule: Q01DX001 (ip), vehicle: other 102 % of control | dose: 200.0 mg/kg/injection, schedule: Q01DX001 (ip), vehicle: other 98 % of control | dose: 400.0 mg/kg/injection, schedule: Q01DX001 (ip), vehicle: other 110 % of control

CN(C)N=Nc1ccc(Cl)cc1C(N)=O
inactive: [8] 104 % of control | [9] 105 % of control | [11] 110 % of control | [12] 102 % of control | [14] 100 % of control

CC(C(=O)N1c2ccccc2Sc2ccccc21)[N+]1(C)CCCC1 (centres undefined)
inactive: dose: 3.12 mg/kg/injection, schedule: Q01DX009 (ip), vehicle: saline 97 % of control | dose: 6.25 mg/kg/injection, schedule: Q01DX009 (ip), vehicle: saline 103 % of control | dose: 12.5 mg/kg/injection, schedule: Q01DX009 (ip), vehicle: saline 102 % of control | dose: 25.0 mg/kg/injection, schedule: Q01DX009 (ip), vehicle: saline 102 % of control | dose: 25.0 mg/kg/injection, schedule: Q04DX003 (ip), vehicle: saline 107 % of control | dose: 50.0 mg/kg/injection, schedule: Q01DX009 (ip), vehicle: saline 91 % of control | dose: 50.0 mg/kg/injection, schedule: Q04DX003 (ip), vehicle: saline 91 % of control

CCc1cc(C(C)(C)C)c(O)c(C(C)(C)C)c1
inactive: [7] 95 % of control | [10] 102 % of control | [13] 95 % of control
